This is an account of results in patent publication US20250236619A1, “FUSED BICYCLIC COMPOUND CONTAINING PYRROLINONE” (CHIA TAI TIANQING PHARMACEUTICAL GROUP CO., LTD., priority 2022, published 2025).

One assay concerns the target HPK1 kinase (Homo sapiens (Human), UniProt Q92918). Description: Assay for in vitro inhibitory activity against HPK1 kinase. The format is biochemical. Particulars: HPK1 1 ng/μL, ATP 1 mM, STK Substrate 1-biotin 500 nM. The protocol: Experimental Example 1: Assay for In Vitro Inhibitory Activity Against HPK1 Kinase A kinase buffer (Enzymatic buffer 5×) was diluted to 1×, and 10 mM MgCl2, 1 mM DTT, and 0.005% Tween 20 were added. A 100 ng/μL HPK1 (Life technology) stock solution was diluted with the kinase buffer to obtain a 1.67×, 1.67 ng/μL working solution (final concentration: 1 ng/μL), and the working solution was seeded in a 384-well plate at 6 μL/well. Different compounds dissolved in DMSO were added to the wells using a nanoliter pipettor to obtain final concentrations of the compounds of 1000 nM to 0.244 nM (4-fold serial dilution, 7 concentrations in total), and blank control wells (without enzyme) and negative control wells (with enzyme, plus vehicle DMSO) were set; the wells were set in duplicate. After the enzyme and the compounds were incubated at room temperature for 1 h, a 5×, 5 mM ATP dilution (final concentration: 1 mM) in the kinase buffer was mixed with a 5×, […] substrate (Cisbio, STK Substrate 1-biotin; final concentration: 500 nM) in equal volume, and the mixture was added to the plate at 4 µL/well. The plate was sealed with a film and then incubated at room temperature for 2 h. An assay antibody solution was prepared by mixing the antibody STK Antibody-cryptate (Cisbio, 5 μL/test) and a 4×, 500 nM Streptavidin-XL665 (Cisbio; final concentration: 125 nM) in equal volume and added to the plate at 10 μL/well. The plate was incubated at room temperature for 1 h. The signal values (excitation: […]) were measured using a PE Envision multimode microplate reader, and IC50 was calculated by four-parameter fitting.

Assay [1] concerns p-SLP76 phosphorylation of Jurkat cells. The assay can be described thus: Assay for inhibitory activity against p-SLP76 phosphorylation of Jurkat cells. The following applies: stimulator CD3CD28, 30 min, read-out: IC50 (nM) for inhibition of p-SLP76 phosphorylation of Jurkat cells. The format is cell-based. As for the experimental part:
2.1 Assay for Inhibitory Activity Against p-SLP76 Phosphorylation of Jurkat Cells
Jurkat cells in a good growth state were added to a centrifuge tube, centrifuged, and resuspended. The cell density was adjusted to 6.25×10^6 cells/mL, and the cells were seeded in a 384-well small-volume white plate at […]. Different compounds dissolved in DMSO were added to the wells using a nanoliter pipettor to obtain final concentrations of the compounds of 2500 nM to 10.29 nM, and a control was set; the wells were set in duplicate. After 1 h of cell culture, the stimulator CD3CD28 (manufacturer: stemcell, 4 μL) was added and the cells were incubated at 37° C. for 30 min. 3 μL of lysis buffer (manufacturer: BioAuxilium) was added to each well, and the plate was shaken at room temperature for 30 min. After the lysate was well mixed, 5 μL of pre-mixed antibody (manufacturer: BioAuxilium) in assay buffer was added and the plate was incubated overnight at room temperature. The signal values were measured on a PerkinElmer Envision multimode microplate reader (excitation: 320 nm, emission: 615 nm/665 nm), and IC50 was calculated by four-parameter filling.

Like-named read-outs stand apart in the source and are kept apart here. Some results are limits rather than exact numbers.

Sequence of HPK1 kinase (Q92918 whole entry): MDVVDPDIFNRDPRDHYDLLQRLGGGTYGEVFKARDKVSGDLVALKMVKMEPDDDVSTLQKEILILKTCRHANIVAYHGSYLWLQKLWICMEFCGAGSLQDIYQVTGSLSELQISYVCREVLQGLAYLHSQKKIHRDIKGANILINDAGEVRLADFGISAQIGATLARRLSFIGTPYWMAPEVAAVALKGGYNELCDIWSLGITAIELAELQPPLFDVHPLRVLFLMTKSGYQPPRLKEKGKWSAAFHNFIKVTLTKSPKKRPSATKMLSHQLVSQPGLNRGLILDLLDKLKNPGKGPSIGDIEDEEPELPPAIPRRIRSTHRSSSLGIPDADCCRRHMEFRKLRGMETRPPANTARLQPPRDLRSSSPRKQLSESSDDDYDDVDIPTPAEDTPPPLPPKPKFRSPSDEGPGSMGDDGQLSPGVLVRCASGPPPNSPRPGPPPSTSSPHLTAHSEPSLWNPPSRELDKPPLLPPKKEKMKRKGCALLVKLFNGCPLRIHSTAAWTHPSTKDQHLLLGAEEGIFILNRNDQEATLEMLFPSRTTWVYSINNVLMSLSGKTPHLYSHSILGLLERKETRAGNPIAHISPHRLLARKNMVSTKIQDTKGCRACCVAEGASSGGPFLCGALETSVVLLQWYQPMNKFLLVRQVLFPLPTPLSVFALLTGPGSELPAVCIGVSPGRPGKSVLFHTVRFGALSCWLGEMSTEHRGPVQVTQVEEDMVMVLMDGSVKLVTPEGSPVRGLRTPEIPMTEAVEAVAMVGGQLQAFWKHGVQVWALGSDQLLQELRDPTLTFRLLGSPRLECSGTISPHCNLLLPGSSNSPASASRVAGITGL

In the case of `CN(C)Cc1nc(Nc2cnc(-c3ccnc4c3c3c(n4C)CCC3)c3c2C(=O)NC3)ccc1C1CCOCC1` [Compound I-6], the 50% inhibitory concentration (IC50) is 2.5 nM against HPK1 kinase and under 50 nM in assay [1] (Homo sapiens, 0.5 h).

In the case of `CN(C)Cc1nc(Nc2ccc(-c3ccnc4c3c3c(n4C)CCC3)c3c2C(=O)NC3)ccc1C1CCOC1` (centres unmarked) [Compound I-8], the IC50 against HPK1 kinase was 3.1 nM; in assay [1] (Homo sapiens, 0.5 h), under 50 nM.

Consider `CN(C)Cc1nc(Nc2cnc(-c3ccnc4c3c3c(n4C)CCC3)c3c2C(=O)NC3)ccc1C1(O)CCOCC1` [Compound I-10], for which the half-maximal inhibitory concentration (IC50) on HPK1 kinase was 5.6 nM; in assay [1] (Homo sapiens, 0.5 h), 50 to 100 nM.

Regarding `CN(C)Cc1nc(Nc2ccc(-c3cnn4ccc5ccoc5c34)c3c2C(=O)NC3)ccc1C1CCOCC1` [Compound I-11], the IC50 on HPK1 kinase worked out at 1.6 nM.

At HPK1 kinase, `CN(C)Cc1nc(Nc2ccc(-c3ccnc4c3c3c(n4C)CCC3)c3c2C(=O)NC3)ccc1N1CC[C@@H](O)C1` [Compound I-12] showed a 50% inhibitory concentration (IC50) of 5.1 nM.

In turn, `CN(C)Cc1nc(Nc2cnc(-c3ccnc4c3c3c(n4C)CCC3)c3c2C(=O)NC3)ccc1N1CCOCC1` [Compound I-13] had a 50% inhibitory concentration (IC50) against HPK1 kinase of 3.5 nM.

`[2H]C([2H])([2H])N(Cc1nc(Nc2cnc(-c3ccnc4c3c3c(n4C)CCC3)c3c2C(=O)NC3)ccc1C1CCOCC1)C([2H])([2H])[2H]` [Compound I-14]: half-maximal inhibition at HPK1 kinase (IC50) was put at 1.4 nM.

Consider `[2H]C([2H])(c1nc(Nc2cnc(-c3ccnc4c3c3c(n4C)CCC3)c3c2C(=O)NC3)ccc1C1CCOCC1)N(C)C` [Compound I-17], for which the IC50 in assay [1] (Homo sapiens, 0.5 h) is under 50 nM.

Compound `CN(C)Cc1nc(Nc2ccc(-c3nnc4ccc5c(n34)CCC5)c3c2C(=O)NC3)ccc1C1CCOCC1` [Compound I-18] yielded an IC50 on HPK1 kinase of 9.8 nM.

The compound `CN(C)Cc1nc(Nc2ccc(-c3ncnc4c3c3c(n4C)CCC3)c3c2C(=O)NC3)ccc1C1CCOCC1` [Compound I-20] yielded a half-maximal inhibitory concentration (IC50) against HPK1 kinase of 3.2 nM.

On to `CN(C)Cc1nc(Nc2ccc(-c3ncnc4[nH]c5ccccc5c34)c3c2C(=O)NC3)ccc1C1CCOCC1` [Compound I-22], for which the half-inhibitory concentration (IC50) on HPK1 kinase was 7.5 nM; in assay [1] it was 50 to 100 nM.

As for `CN(C)Cc1nc(Nc2ccc(-c3ncnc4[nH]c5c(c34)CCC5)c3c2C(=O)NC3)ccc1C1CCOCC1` [Compound I-24], in assay [1] (Homo sapiens, 0.5 h), the IC50 lay in the range of 50 to 100 nM.

On to `CN(C)Cc1nc(Nc2ccc(-c3nnc4cc5c(nn34)CCC5)c3c2C(=O)NC3)ccc1C1CCOCC1` [Compound I-26], for which inhibition on HPK1 kinase was half-maximal at 16 nM (IC50).

Consider `CN(C)Cc1nc(Nc2ccc(-c3nnc4cc5c(cn34)CCC5)c3c2C(=O)NC3)ccc1C1CCOCC1` [Compound I-27], for which 23 nM corresponded to half-maximal inhibition at HPK1 kinase (IC50).

As to `CN(C)Cc1nc(Nc2ccc(-c3cnc4ccc5occc5n34)c3c2C(=O)NC3)ccc1C1CCOCC1` [Compound I-28], the IC50 was 2 nM against HPK1 kinase and under 50 nM in assay [1] (Homo sapiens, 0.5 h).

For the compound `CN(C)Cc1nc(Nc2ccc(-c3cnn4cc5c(nc34)CCC5)c3c2C(=O)NC3)ccc1C1CCOCC1` [Compound I-30], the IC50 on HPK1 kinase is 3.6 nM; in assay [1], 50 to 100 nM.

`CN(C)Cc1nc(Nc2ccc(-c3cnc4ccc5c(ccn5C)n34)c3c2C(=O)NC3)ccc1C1CCOCC1` [Compound I-32]: the values for the IC50 (on HPK1 kinase; in assay [1]) were 4.4 nM and under 50 nM, respectively.

Consider `CN(C)Cc1nc(Nc2ccc(-c3nnc4ccc5occc5n34)c3c2C(=O)NC3)ccc1C1CCOCC1` [Compound I-33], for which the IC50 at HPK1 kinase was 2.9 nM; in assay [1] it was under 50 nM.

As to `CN(C)Cc1nc(Nc2ccc(-c3cnn4c3CC3(CC3)C4)c3c2C(=O)NC3)ccc1C1CCOCC1` [Compound I-34], the IC50 in assay [1] (Homo sapiens, 0.5 h) was under 50 nM.

Take `CN(C)Cc1nc(Nc2ccc(-c3cnc4ccc5c(n34)CCO5)c3c2C(=O)NC3)ccc1C1CCOCC1` [Compound I-35]: in assay [1] (Homo sapiens, 0.5 h), the IC50 is 50 to 100 nM.

In the case of `CN(C)Cc1nc(Nc2ccc(-c3nnc4ccc5c(n34)OCC5)c3c2C(=O)NC3)ccc1C1CCOCC1` [Compound I-36], the IC50 against HPK1 kinase is 5.3 nM; in assay [1] it was 50 to 100 nM.

In the case of `CN(C)Cc1nc(Nc2ccc(-c3cnn4ccc5occc5c34)c3c2C(=O)NC3)ccc1C1CCOCC1` [Compound I-38], in assay [1] (Homo sapiens, 0.5 h), the IC50 was under 50 nM.

The compound `CN(C)Cc1nc(Nc2cnc(-c3cnc4ccc5sccc5n34)c3c2C(=O)NC3)ccc1C1CCOCC1` [Compound I-41] displayed an IC50 against HPK1 kinase of 18 nM.

On HPK1 kinase, `CN(C)Cc1nc(Nc2ccc(-c3cnc4n3C3CC3C4)c3c2C(=O)NC3)ccc1C1CCOCC1` (centres unmarked) [Compound I-43] showed an IC50 of 16 nM.

In the case of `CN(C)Cc1nc(Nc2ccc(-c3cnc4ccc5c(n34)OCC5)c3c2C(=O)NC3)ccc1C1CCOCC1` [Compound I-44], the IC50 against HPK1 kinase is 3.5 nM; in assay [1] (Homo sapiens, 0.5 h), under 50 nM.

`CN(C)Cc1nc(Nc2ccc(-c3cnc4ccc5occc5n34)c3c2C(=O)NC3)ccc1C1(O)CCOCC1` [Compound I-45]: the IC50 is 3.4 nM against HPK1 kinase and under 50 nM in assay [1] (Homo sapiens, 0.5 h).

Turning to `CN(C)Cc1nc(Nc2cnc(-c3cnn4ccc5occc5c34)c3c2C(=O)NC3)ccc1C1CCOCC1` [Compound I-46], the concentration for half-maximal inhibition (IC50) in assay [1] (Homo sapiens, 0.5 h) was under 50 nM.

Turning to `CN(C)Cc1nc(Nc2cnc(-c3cnn4ccc5occc5c34)c3c2C(=O)NC3)ccc1N1CCOCC1` [Compound I-47], in assay [1] (Homo sapiens, 0.5 h), the IC50 was under 50 nM.

Regarding `CN(C)Cc1nc(Nc2ccc(-c3cnc4cnc5occc5n34)c3c2C(=O)NC3)ccc1C1CCOCC1` [Compound I-48], in assay [1] (Homo sapiens, 0.5 h), the concentration for half-maximal inhibition (IC50) is under 50 nM.

Consider `CN(C)Cc1nc(Nc2ccc(-c3cnn4ccc5occc5c34)c3c2C(=O)NC3)ccc1N1CCN(C)C1=O` [Compound I-49], for which the IC50 at HPK1 kinase was 6.1 nM; in assay [1] it was under 50 nM.

Turning to `CN(C)Cc1nc(Nc2ccc(-c3cnn4ccc5occc5c34)c3c2C(=O)NC3)ccc1N1CCCC1=O` [Compound I-51], the IC50 on HPK1 kinase is 5.8 nM; in assay [1], under 50 nM.

As for `CN(C)Cc1nc(Nc2ccc(-c3cnc4ccc5occc5n34)c3c2C(=O)NC3)ccc1N1CCCC1=O` [Compound I-52], in assay [1] (Homo sapiens, 0.5 h), the IC50 is under 50 nM.

On to `[2H]C([2H])(c1nc(Nc2ccc(-c3cnn4c3CC3(CC3)C4)c3c2C(=O)NC3)ccc1C1CCOCC1)N(C)C` [Compound I-53], for which the IC50 in assay [1] (Homo sapiens, 0.5 h) was under 50 nM.

As for `CN(C)Cc1nc(Nc2ccc(-c3cnc4cnc5occc5n34)c3c2C(=O)NC3)ccc1C1CCOC1` (centres unmarked) [Compound I-54], in assay [1] (Homo sapiens, 0.5 h), the half-inhibitory concentration (IC50) was under 50 nM.

For `CN(C)Cc1nc(Nc2ccc(-c3cnn4ccc5occc5c34)c3c2C(=O)NC3)ccc1C1CC(=O)N(C)C1` (centres unmarked) [Compound I-59], in assay [1] (Homo sapiens, 0.5 h), the IC50 was under 50 nM.

For the compound `CN(C)Cc1nc(Nc2ccc(-c3cnc4cnc5occc5n34)c3c2C(=O)NC3)ccc1C1CCN(C)C(=O)C1` (centres unmarked) [Compound I-61], the half-maximal inhibitory concentration (IC50) in assay [1] (Homo sapiens, 0.5 h) lay in the range of 50 to 100 nM.

As for `CN(C)Cc1nc(Nc2ccc(-c3cnn4ccc5occc5c34)c3c2C(=O)NC3)ccc1C1CCCO1` (centres unmarked) [Compound I-64], the half-inhibitory concentration (IC50) in assay [1] (Homo sapiens, 0.5 h) is under 50 nM.

On to `CN(C)Cc1nc(Nc2ccc(-c3cnc4ccc5occc5n34)c3c2C(=O)NC3)ccc1C1CCN(C)C(=O)C1` (centres unmarked) [Compound I-66], for which the IC50 in assay [1] (Homo sapiens, 0.5 h) is under 50 nM.

As to `CN(C)Cc1nc(Nc2ccc(-c3cnn4c3CC3(CC3)C4)c3c2C(=O)NC3)ccc1C1CCN(C)C(=O)C1` (centres unmarked) [Compound I-67], in assay [1] (Homo sapiens, 0.5 h), the half-inhibitory concentration (IC50) was under 50 nM.

Turning to `CN(C)Cc1nc(Nc2ccc(-c3cnc4cnc5occc5n34)c3c2C(=O)NC3)ccc1[C@@H]1CCN(C)C(=O)C1` [Compound I-68], on HPK1 kinase, the IC50 was 7.7 nM.

For `CC(=O)N(C)c1ccc(Nc2ccc(-c3cnn4ccc5occc5c34)c3c2C(=O)NC3)nc1CN(C)C` [Compound I-70], in assay [1] (Homo sapiens, 0.5 h), the IC50 was under 50 nM.

For `CN(C)Cc1nc(Nc2ccc(-c3cnn4ccc5occc5c34)c3c2C(=O)NC3)ccc1N1CCN(C)C(=O)C1` [Compound I-76], the half-inhibitory concentration (IC50) in assay [1] (Homo sapiens, 0.5 h) was under 50 nM.

For the compound `CN(C)Cc1nc(Nc2ccc(-c3cnc4cnc5occc5n34)c3c2C(=O)NC3)ccc1C1CCN(C)CC1` [Compound I-80], in assay [1] (Homo sapiens, 0.5 h), the IC50 was under 50 nM.

Take `CN(C)Cc1nc(Nc2ccc(-c3cnn4ccc5occc5c34)c3c2C(=O)NC3)ccc1-c1ccn(C)c(=O)c1` [Compound I-81]: in assay [1] (Homo sapiens, 0.5 h), the IC50 is under 50 nM.

Take `CN(C)Cc1nc(Nc2ccc(-c3ccnc4c3cc3n4CCC3)c3c2C(=O)NC3)ccc1C1CCN(C)C(=O)C1` (centres unmarked) [Compound I-82]: on HPK1 kinase, the midpoint of inhibition, the IC50, lay at 3 nM.

With `CNCc1nc(Nc2ccc(-c3cnn4ccc5occc5c34)c3c2C(=O)NC3)sc1C1CCOCC1` [Compound I-85], the half-inhibitory concentration (IC50) in assay [1] (Homo sapiens, 0.5 h) is under 50 nM.
